Measured values reported in US7030121B2, “Pyrazolopyrazine compound and pharmaceutical use thereof” (Astellas Pharma Inc., priority 2001, dated 2006).

Columns and labels:
[1] = biological target: T1, human A1 receptor (Homo sapiens, UniProt P30542); assay: Adenosine antagonistic activity, radioligand binding with [3H]DPCPX; conditions: [3H]DPCPX 4.5 nM
T1 sequence (P30542 1-326): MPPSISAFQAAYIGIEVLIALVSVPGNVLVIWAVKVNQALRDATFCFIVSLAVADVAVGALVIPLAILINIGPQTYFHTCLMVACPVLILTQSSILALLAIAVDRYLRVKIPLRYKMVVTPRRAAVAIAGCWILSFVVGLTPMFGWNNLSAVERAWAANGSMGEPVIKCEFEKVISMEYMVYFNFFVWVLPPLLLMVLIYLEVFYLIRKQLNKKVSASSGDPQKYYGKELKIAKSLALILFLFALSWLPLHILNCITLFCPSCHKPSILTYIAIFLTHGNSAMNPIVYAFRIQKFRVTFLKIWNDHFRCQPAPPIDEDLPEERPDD
Experimental: (§1) Test 1: Adenosine Antagonistic Activity
(§2) The adenosine antagonistic activity [Ki(nM)] of the test compound was examined by radioligand binding techniques using 8-cyclopentyl-1,3-dipropylxanthine, [dipropyl-2,3-^3H(N)] ([^3H]DPCPX, 4.5 nM) for human A1 receptor and [^3H]CGS 21680 (20 nM) for human A2a receptor.

[2] = tested on: ddY mice; assay: Anticatalepsy activity in mouse (haloperidol-induced catalepsy); assay type: in vivo; conditions: 3.2 mg/kg orally, ddY mice n=7; haloperidol 0.32 mg/kg i.p. 30 min later; measured 30 min after injection
Experimental: Test 2: Anticatalepsy Activity in Mouse [I] Test Method
The test compound (3.2 mg/kg) was administered orally with ddY mice (n=7). Then, haloperidol (0.32 mg/kg) was injected intraperitoneally 30 min. after the administration of the compound. Thirty min. after the injection, the cataleptic responses of mice were measured. The forelimbs of each mouse were placed on a 3 cm high, 3 mm wide horizontal bar, and the duration of cataleptic posture was measured for up to 30 sec.

[3] = biological target: human A2a receptor (Homo sapiens, UniProt P29274); assay: Adenosine antagonistic activity, radioligand binding with [3H]CGS 21680; conditions: [3H]CGS 21680 20 nM
Experimental: as §1, §2

Sequence of human A2a receptor (P29274 whole entry): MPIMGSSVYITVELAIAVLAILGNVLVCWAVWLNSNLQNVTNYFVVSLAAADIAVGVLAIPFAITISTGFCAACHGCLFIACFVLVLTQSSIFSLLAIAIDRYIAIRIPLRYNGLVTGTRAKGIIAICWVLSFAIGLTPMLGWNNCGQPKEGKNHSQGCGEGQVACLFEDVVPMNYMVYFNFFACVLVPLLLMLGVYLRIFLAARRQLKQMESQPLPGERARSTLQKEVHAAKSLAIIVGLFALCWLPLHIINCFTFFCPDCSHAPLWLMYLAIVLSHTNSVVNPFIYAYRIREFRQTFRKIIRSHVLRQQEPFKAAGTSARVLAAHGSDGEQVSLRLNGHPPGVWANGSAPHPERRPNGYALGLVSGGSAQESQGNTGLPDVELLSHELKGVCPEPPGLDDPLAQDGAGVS

| Ki [1] [nM] | Ki [3] [nM] | melting point [°C] | Structure (SMILES) | Manifestation rate of catalepsy (number of mouse) [2] |
| --- | --- | --- | --- | --- |
| 0.35 | 3.28 | 168 to 169 | Cn1cc(-c2c(-c3ccccc3)nn3ccncc23)ccc1=O [Example 2, 3-(1-methyl-2(1H)-pyridinon-5-yl)-2-phenylpyrazolo[1,5-a]pyrazine] | 0/7 |
| – | – | 193 to 194 | Cn1cc(-c2c(-c3ccccc3F)nn3ccncc23)ccc1=O [Example 12, 3-(1-Methyl-2(1H)-pyridinon-5-yl)-2-(2-fluorophenyl)pyrazolo[1,5-a]pyrazine] | – |
| – | – | 196 to 197 | CC(C)n1cc(-c2c(-c3ccccc3)nn3ccncc23)ccc1=O [Example 3, 3-(1-Isopropyl-2(1H)-pyridinon-5-yl)-2-phenylpyrazolo[1,5-a]pyrazine] | – |
| 0.18 | 0.68 | > 250 | O=c1ccc(-c2c(-c3ccccc3)nn3ccncc23)c[nH]1 [Example 1, 3-(2(1H)-pyridinon-5-yl)-2-phenylpyrazolo[1,5-a]pyrazine] | 1/7 |
| – | – | 127 to 128 | CCCn1cc(-c2c(-c3ccccc3F)nn3ccncc23)ccc1=O [Example 15, 3-(1-n-Propyl-2(1H)-pyridinon-5-yl)-2-(2-fluorophenyl)pyrazolo[1,5-a]pyrazine] | – |
| – | – | 222 to 223 | Cn1cc(-c2c(-c3ccc(F)cc3)nn3ccncc23)ccc1=O [Example 7, 3-(1-Methyl-2(1H)-pyridinon-5-yl)-2-(4-fluorophenyl)pyrazolo[1,5-a]pyrazine] | – |
| – | – | 183 to 184 | CCCn1cc(-c2c(-c3ccc(F)cc3)nn3ccncc23)ccc1=O [Example 10, 3-(1-n-Propyl-2(1H)-pyridinon-5-yl)-2-(4-fluorophenyl)pyrazolo[1,5-a]pyrazine] | – |
| – | – | 150 to 151 | CC(C)n1cc(-c2c(-c3ccccc3F)nn3ccncc23)ccc1=O [Example 13, 3-(1-Isopropyl-2(1H)-pyridinon-5-yl)-2-(2-fluorophenyl)pyrazolo[1,5-a]pyrazine] | – |
| 0.36 | 4.44 | 165 to 166 | CCn1cc(-c2c(-c3ccc(F)cc3)nn3ccncc23)ccc1=O [Example 9, 3-(1-Ethyl-2(1H)-pyridinon-5-yl)-2-(4-fluorophenyl)pyrazolo[1,5-a]pyrazine] | 0/7 |
| – | – | 214 to 215 | CC(C)n1cc(-c2c(-c3ccc(F)cc3)nn3ccncc23)ccc1=O [Example 8, 3-(1-Isopropyl-2(1H)-pyridinon-5-yl)-2-(4-fluorophenyl)pyrazolo[1,5-a]pyrazine] | – |
| – | – | 165 to 166 | CCCn1cc(-c2c(-c3ccccc3)nn3ccncc23)ccc1=O [Example 5, 3-(1-n-Propyl-2(1H)-pyridinon-5-yl)-2-phenylpyrazolo[1,5-a]pyrazine] | – |
| – | – | 192 to 193 | CCn1cc(-c2c(-c3ccccc3)nn3ccncc23)ccc1=O [Example 4, 3-(1-Ethyl-2 (1H)-pyridinon-5-yl)-2-phenylpyrazolo[1,5-a]pyrazine] | – |
| – | – | 173 to 174 | CCn1cc(-c2c(-c3ccccc3F)nn3ccncc23)ccc1=O [Example 14, 3-(1-Ethyl-2(1H)-pyridinon-5-yl)-2-(2-fluorophenyl)pyrazolo[1,5-a]pyrazine] | – |
